Results as given in PubChem BioAssay (NCI).
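Assay format: 96-well plates, 48-hour exposure. Definition used: TGI = concentration required for complete inhibition of growth.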

How the values were obtained:
Assay in all cases: inhibition of tumour cell growth, NCI panel, 48 h
A549 NSCLC = test system: A549 NSCLC
ACHN renal = test system: ACHN renal
CAKI-1 renal = test system: CAKI-1 renal
COLO 205 colon = test system: COLO 205 colon
HCC-2998 colon = test system: HCC-2998 colon
HCT-15 colon = test system: HCT-15 colon
HOP-62 NSCLC = test system: HOP-62 NSCLC
K-562 leukemia = test system: K-562 leukemia
KM12 colon = test system: KM12 colon
M14 melanoma = test system: M14 melanoma
MALME-3M melanoma = test system: MALME-3M melanoma
MDA-N = test system: MDA-N
MOLT-4 leukemia = test system: MOLT-4 leukemia
NCI-H522 lung = test system: NCI-H522 lung
RXF 393 renal = test system: RXF 393 renal
SK-MEL-2 melanoma = test system: SK-MEL-2 melanoma
SK-OV-3 ovarian = test system: SK-OV-3 ovarian
SR leukemia = test system: SR leukemia
SW-620 colon = test system: SW-620 colon
UACC-257 melanoma = test system: UACC-257 melanoma

| Structure (SMILES) | TGI (A549 NSCLC) | TGI (ACHN renal) | TGI (CAKI-1 renal) | TGI (COLO 205 colon) | TGI (HCC-2998 colon) | TGI (HCT-15 colon) | TGI (HOP-62 NSCLC) | TGI (K-562 leukemia) | TGI (KM12 colon) | TGI (M14 melanoma) | TGI (MALME-3M melanoma) | TGI (MDA-N) | TGI (MOLT-4 leukemia) | TGI (NCI-H522 lung) | TGI (RXF 393 renal) | TGI (SK-MEL-2 melanoma) | TGI (SK-OV-3 ovarian) | TGI (SR leukemia) | TGI (SW-620 colon) | TGI (UACC-257 melanoma) |
| --- | --- | --- | --- | --- | --- | --- | --- | --- | --- | --- | --- | --- | --- | --- | --- | --- | --- | --- | --- | --- |
| Nc1nc(N)nc(-c2cnc3ccccc3c2)n1 | > 100 µM | > 100 µM | > 100 µM | > 100 µM | > 100 µM | > 100 µM | > 100 µM | > 100 µM | > 100 µM | > 100 µM | > 100 µM | > 100 µM | > 100 µM | > 100 µM | > 100 µM | > 100 µM | > 100 µM | > 100 µM | > 100 µM | > 100 µM |
| C/C=C/C=C/C1=NN(c2cccc(S(=O)(=O)O)c2)C2(C1)C(Cl)C(=O)N2c1nc2ccccc2s1 (stereo not given) | 28.3 µM | 28.8 µM | 20.9 µM | 35.3 µM | 31.5 µM | 31.4 µM | 36.2 µM | > 62.1 µM | 27.3 µM | 29.4 µM | 32.7 µM | 29 µM | > 68.5 µM | 13.3 µM | 24.3 µM | 30.2 µM | 33.9 µM | > 54.3 µM | 43.1 µM | 33.5 µM |
| COc1cc(O)c2c(=O)c3ccccc3n(C)c2c1 | > 100 µM | > 100 µM | > 100 µM | > 100 µM | > 100 µM | > 100 µM | 79 µM | > 100 µM | > 100 µM | > 100 µM | > 100 µM | > 100 µM | > 100 µM | > 100 µM | 51.4 µM | > 100 µM | > 100 µM | > 100 µM | > 100 µM | > 100 µM |
| CCOC(=O)c1c(Nc2ccccc2)sc2cccnc12 | 81.1 µM | > 88 µM | 98.4 µM | > 60.5 µM | 77.8 µM | 58.3 µM | > 81 µM | 82.8 µM | 37.6 µM | 26.4 µM | 53.4 µM | 58.3 µM | 55.9 µM | > 58.4 µM | > 86.6 µM | 49.5 µM | > 89.9 µM | 59.6 µM | > 100 µM | 51.1 µM |
| CCN(CC)CC(O)CNc1ccc(NCC(O)CCl)c2c1C(=O)c1ccccc1C2=O (stereo not given) | 24.4 µM | 16.3 µM | 21.9 µM | 21.6 µM | 21.6 µM | 19.9 µM | 25.6 µM | 6.45 µM | 17 µM | 9.38 µM | 28.3 µM | 19.7 µM | 8.82 µM | 13.5 µM | 26.6 µM | 26.2 µM | 39.1 µM | 11.6 µM | 14.4 µM | 16 µM |
| COC(=O)/C=C1/OC(c2ccc(Br)cc2)=C(Br)C1=O | 33.6 µM | 16.8 µM | 6.32 µM | 4.12 µM | 18.6 µM | 14.2 µM | 17.5 µM | 6.58 µM | 22.4 µM | 10.8 µM | 21.5 µM | 12.6 µM | 6.87 µM | 10.7 µM | 11.1 µM | 24.8 µM | 38.2 µM | 3.31 µM | 7.49 µM | 27.5 µM |
| CN(C)C(=O)c1nnsc1NN=O | > 100 µM | > 100 µM | > 100 µM | > 100 µM | > 100 µM | > 100 µM | > 100 µM | > 100 µM | > 100 µM | > 100 µM | > 100 µM | > 100 µM | > 100 µM | > 100 µM | > 100 µM | > 100 µM | > 100 µM | > 100 µM | > 100 µM | > 100 µM |
| O=C(O)c1cnccc1-c1cc(=O)[nH]n1-c1ccccc1 | > 100 µM | > 100 µM | > 100 µM | 34.3 µM | > 63.2 µM | > 100 µM | > 100 µM | > 100 µM | > 100 µM | > 100 µM | > 100 µM | > 100 µM | > 77.6 µM | > 100 µM | > 100 µM | > 100 µM | > 100 µM | > 100 µM | > 100 µM | > 100 µM |
| C/C(=N/NC(=S)N1CCCCCC1)c1ccccc1O | > 100 µM | 39 µM | > 96.2 µM | > 49.3 µM | > 42.1 µM | > 100 µM | 56.7 µM | > 100 µM | > 53.7 µM | 11 µM | > 49.8 µM | > 100 µM | 24.4 µM | > 53.2 µM | > 93 µM | > 100 µM | > 100 µM | 4.57 µM | > 100 µM | 30.9 µM |
| COc1ccc(-c2cn3c(nc4ccccc43)c(C)n2)cc1 | > 100 µM | > 100 µM | > 100 µM | > 100 µM | > 100 µM | > 100 µM | > 100 µM | > 100 µM | > 100 µM | > 100 µM | > 100 µM | > 100 µM | > 100 µM | > 100 µM | > 88.9 µM | > 100 µM | 39.2 µM | > 100 µM | > 100 µM | > 100 µM |
| CCOC(=O)c1c(NS(=O)(=O)c2ccc(Br)cc2)sc2c1CCCC2 | 26.5 µM | 14.6 µM | 33.7 µM | 32.1 µM | 32.6 µM | 19 µM | 14.1 µM | > 100 µM | 18.2 µM | 9.92 µM | 27.9 µM | 52.9 µM | 12.3 µM | 16.2 µM | 6.98 µM | 13.5 µM | 50 µM | 74.7 µM | 30.6 µM | 47.5 µM |
| NC(=O)ON=C1CCN(Cc2ccccc2)CC1 | > 100 µM | > 100 µM | > 100 µM | > 100 µM | > 100 µM | > 100 µM | > 100 µM | > 100 µM | > 100 µM | > 100 µM | > 100 µM | > 100 µM | > 100 µM | > 100 µM | > 100 µM | > 100 µM | > 100 µM | > 100 µM | > 100 µM | > 100 µM |
| O=[N+]([O-])c1ccccc1S(=O)(=O)c1ccccc1[N+](=O)[O-] | > 56.2 µM | > 100 µM | > 100 µM | > 100 µM | > 100 µM | > 100 µM | 87 µM | > 100 µM | > 100 µM | > 100 µM | > 100 µM | > 100 µM | > 100 µM | > 100 µM | 83.8 µM | > 100 µM | > 100 µM | > 100 µM | > 56.2 µM | > 100 µM |
| CCOC(=O)c1ccc(-c2cccs2)n1C | > 100 µM | > 100 µM | > 100 µM | > 100 µM | > 100 µM | > 100 µM | > 100 µM | > 100 µM | > 100 µM | > 100 µM | > 100 µM | > 100 µM | > 100 µM | > 100 µM | > 100 µM | > 100 µM | > 100 µM | > 100 µM | > 100 µM | > 100 µM |
